Like-named read-outs stand apart in the source and are kept apart here.
Columns and labels:
[1] = stability in human liver microsomes; type: in vitro ADME; conditions: both sexes
Procedure: Experiments were performed by Pharmaron, Inc., China. […] Negative control samples were prepared by replacing the NADPH solution with ultrapure H2O. The negative controls were used to exclude the confounding variable of test compound instability. Experiments involving NADPH were carried out in duplicate. Negative controls were prepared in singlet. Aliquots (90 µL) were taken at 0, 15, 30, 45, and 60 min of incubation. The microsomal reaction in each aliquot was stopped by the addition of four volumes of cold acetonitrile containing internal standards (100 nM alprazolam, 200 nM imipramine, 200 nM labetalol, and 2 µM ketoprofen). The samples were centrifuged at 3,220 × g for 40 min, and an aliquot (90 µL) of the supernatant was mixed with 90 µL of ultrapure H2O. The resulting mixture was used for liquid chromatography–tandem mass spectrometry (LC-MS/MS) analysis (Shimadzu and SCIEX Triple Quad 4500). Peak areas were determined from extracted ion chromatograms. A slope, k, was determined by linear regression analysis of a plot of the natural logarithm of the remaining percentage of the parent drug versus incubation time. The in vitro t1/2 (min) was determined from the slope: in vitro t1/2=−(0.693/k) In vitro t1/2 (min, mean of duplicate determinations) was converted to in vitro intrinsic clearance (in vitro Clint, μL/(min·µg protein)) by means of the following equation : in vitro Clint=(0.693/t1/2)×(volume of incubation (μL)/amount of protein (μg))

hERG channel = target: T1, hERG channel (Homo sapiens, UniProt Q12809); experiment: hERG potassium channel current inhibition, whole-cell patch clamp; type: cell-based; conditions: hERG-expressing HEK 293 cells, whole-cell recording, 25 °C
T1 construct: host or cells: HEK 293
T1 sequence (Q12809 whole entry): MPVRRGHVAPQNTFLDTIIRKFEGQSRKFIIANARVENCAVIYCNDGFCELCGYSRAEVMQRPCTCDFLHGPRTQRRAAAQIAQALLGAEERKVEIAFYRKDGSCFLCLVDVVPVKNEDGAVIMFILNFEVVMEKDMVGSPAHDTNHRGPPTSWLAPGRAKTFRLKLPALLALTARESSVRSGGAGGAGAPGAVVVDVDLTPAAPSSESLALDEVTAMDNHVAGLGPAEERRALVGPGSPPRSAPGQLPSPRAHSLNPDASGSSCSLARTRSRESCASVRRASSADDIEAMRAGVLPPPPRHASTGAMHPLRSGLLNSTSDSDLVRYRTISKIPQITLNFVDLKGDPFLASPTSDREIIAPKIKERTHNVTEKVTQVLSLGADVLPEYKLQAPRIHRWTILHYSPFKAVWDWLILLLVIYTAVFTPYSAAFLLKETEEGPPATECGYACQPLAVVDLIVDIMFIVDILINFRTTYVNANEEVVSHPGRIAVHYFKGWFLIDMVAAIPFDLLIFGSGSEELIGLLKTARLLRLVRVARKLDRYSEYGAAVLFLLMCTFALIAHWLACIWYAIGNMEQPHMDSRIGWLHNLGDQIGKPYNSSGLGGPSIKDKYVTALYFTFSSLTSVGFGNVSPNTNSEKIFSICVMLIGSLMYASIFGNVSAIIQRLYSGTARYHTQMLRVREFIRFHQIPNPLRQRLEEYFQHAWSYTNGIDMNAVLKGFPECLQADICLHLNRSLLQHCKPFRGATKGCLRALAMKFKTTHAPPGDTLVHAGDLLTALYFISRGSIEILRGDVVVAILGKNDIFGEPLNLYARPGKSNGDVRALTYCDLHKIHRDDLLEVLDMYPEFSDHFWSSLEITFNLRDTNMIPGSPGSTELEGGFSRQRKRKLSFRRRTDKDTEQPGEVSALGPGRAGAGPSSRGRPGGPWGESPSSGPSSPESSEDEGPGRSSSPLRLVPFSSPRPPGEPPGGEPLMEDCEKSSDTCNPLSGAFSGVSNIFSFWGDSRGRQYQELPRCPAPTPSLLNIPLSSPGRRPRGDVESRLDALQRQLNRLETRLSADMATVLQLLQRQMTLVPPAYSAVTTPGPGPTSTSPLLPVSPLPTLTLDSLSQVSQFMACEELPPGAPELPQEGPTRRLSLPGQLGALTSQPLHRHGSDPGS
Procedure: Inhibition of human ether-a-go-go-related gene (hERG) potassium channel current was carried out following a standard protocol by Pharmaron, Inc. hERG stably expressed HEK 293 cell line (Cat# K1236) was purchased from Invitrogen (Thermo Fisher Scientific, USA). The cells are cultured in 90% DMEM, 10% dialyzed FBS, 0.1 mM NEAA, 25 mM HEPES, 100 U/mL Penicillin-Streptomycin, 5 µg/mL Blasticidin, and 400 µg/mL Geneticin. Cells are split using TrypLE Express about three times a week and maintained between ~40% and ~80% confluence. Before the assay, the cells were plated onto the coverslips at 5 × 10^5 cells/6 cm cell culture dish and induced with doxycycline at 1 µg/mL for 48 h. Test compound was initially prepared in DMSO with final concentration of 30 mM as stock solution. Then stock solution of test compound was serial-diluted by ratio of 1:3 with DMSO to prepare additional four intermedial solutions including 10, 3.33, 1.11, 0.37 mM, respectively. […] 5 doses were challenged to the patched cells for IC50 determination.
The voltage-gated hERG potassium channel current was recorded at room temperature (25 °C) from randomly selected transfected cells using whole-cell recording technique with a Multiclamp 700B amplifier (Molecular Devices, US) and an EPC10 microamplifier (HEKA, USA). Extracellular solution (in mM): 132 NaCl, 4 KCl, 3 CaCl2, 0.5 MgCl2, 11.1 glucose, and 10 HEPES (pH adjusted to 7.35 with NaOH). Intracellular solution (in mM): 70 KF, 60 KCl, 15 NaCl, 5 EGTA, and 5 HEPES (pH adjusted to 7.35 with KOH).
The holding potential was set to −90 mV for 1 s; recording current at 50 kHz and filter at 10 kHz. Leaking current was tested at −80 mV for 500 ms. […] The current was recorded for 120 s to assess the current stability. […] After allowing the current to stabilize for 3 min, compound was applied. hERG current in the presence of test compound were recorded for approximately 5 min to reach steady state and then five sweeps were captured. […] Percent current inhibition was calculated using the following equation. […]

LXRβ = target: T2, LXRβ (Homo sapiens, UniProt P55055); experiment: LXRβ radioligand binding inhibition; conditions: [3H]T0901317 binding, recombinant protein; for % inhibition observed, LXRβ: 10 µM; for inhibition at 10 µM: read-out: % inhibition observed, LXRβ
T2 construct: Eurofins (assay provider); host or cells: E. coli
T2 sequence (P55055 1-460): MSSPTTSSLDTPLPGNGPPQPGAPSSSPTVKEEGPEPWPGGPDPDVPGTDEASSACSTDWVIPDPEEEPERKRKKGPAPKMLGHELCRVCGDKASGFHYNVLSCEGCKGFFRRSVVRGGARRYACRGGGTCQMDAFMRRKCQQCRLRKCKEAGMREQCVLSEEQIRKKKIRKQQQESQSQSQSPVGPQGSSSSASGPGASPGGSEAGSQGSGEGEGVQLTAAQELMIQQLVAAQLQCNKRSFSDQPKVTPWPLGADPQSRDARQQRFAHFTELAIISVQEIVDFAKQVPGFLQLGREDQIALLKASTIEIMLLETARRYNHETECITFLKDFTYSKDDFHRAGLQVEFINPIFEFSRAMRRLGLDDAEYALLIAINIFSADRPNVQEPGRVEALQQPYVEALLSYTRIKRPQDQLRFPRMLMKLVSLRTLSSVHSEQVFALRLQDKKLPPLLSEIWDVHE
Procedure: Four nuclear receptors: glucocorticoid, androgen, LXRα, and LXRβ were assayed. Inhibition of agonist binding to each of the receptors was carried out following a standard protocol by Eurofins, Inc., USA. Compounds were tested at 10 µM. Compound binding was measured by scintillation counting and was calculated as a % inhibition of the binding of a radioactively labeled ligand specific for each target. Percent inhibition of control specific binding was expressed as
100−[(measured specific binding)/(control specific binding)∗100]
where measured specific binding is the amount of radioactive ligand binding obtained in the presence of test compounds.
(iii) LXRα (human) recombinant protein expressed in E. coli; agonist radioligand 20 nM [^3H] […] (iv) LXRβ (human) recombinant protein expressed in E. coli; agonist radioligand 20 nM [^3H]

THP-1 cells = conditions: cited from earlier work
[2] = human liver microsomes, pH 7.4, 1 μM, HLM 0.5 mg/mL, 37°C, 1 h, mean of duplicates, read-out: HLM stability t1/2

C[C@]12CCC3C(CNC4=CC(=O)CC[C@@]43C)C1CCC2C(=O)NC(c1ccc(F)cc1)c1ccc(F)cc1 (stereo partly shown) [Compound 5]
half-life at 1 µM [1, 2]: 443 min
half-life at 1 µM ([1]; human liver microsomes, pH 7.4, as stated in text, read-out: half-life in human liver microsomes): > 360 min
IC50 (hERG channel): 3 µM
% inhibition observed, LXRβ (LXRβ): low binding
inhibition at 10 µM (LXRβ): 26%
IC50 (THP-1 cells): 24 µM

CCCN1CC2C3CCC(C(=O)Nc4cc(C(C)(C)C)ccc4C(C)(C)C)[C@@]3(C)CCC2[C@@]2(C)CCC(=O)C=C12 (stereo partly shown) [Compound 2]
half-life at 1 µM [1, 2]: 18 min
IC50 (hERG channel): 0.74 µM
% inhibition observed, LXRβ (LXRβ): significantly inhibit binding
inhibition at 10 µM (LXRβ): 69%
IC50 (THP-1 cells): 24 µM

CC(C)(C)c1ccc(C(C)(C)C)c(NC(=O)C2CCC3C4CNC5=CC(=O)CC[C@]5(C)C4CC[C@]23C)c1 (stereo partly shown) [Compound 1]
half-life at 1 µM ([1]; microsomes, pH 7.4, HLM stability t1/2): 45 min
IC50 (hERG channel): 0.95 µM
% inhibition observed, LXRβ (LXRβ): significantly inhibit binding
inhibition at 10 µM (LXRβ): 72%
IC50 (THP-1 cells; read-out: Mammalian cell IC50 Cytotoxicity THP1, THP-1 cells, 72 h, Alamar Blue): 18 µM

— PMC12210912, “Pharmacologic properties and inhibitory activity of 6-azasteroids against Mycobacterium leprae in vivo and in vitro” (Microbiology Spectrum, 2025)
